According to US20070213301A1 (ACHILLION PHARMACEUTICALS, INC., priority 2006, published 2007):
pEC50: −log10 of the molar value. Where two headings read alike, the source gives them in different places.

Tested on: HCV replicon
Assay: HCV replicon replication assay (NPTII ELISA)
Assay type: cell-based, Hepatitis C virus (Huh-7 cells)
Conditions: inhibition of HCV replicon replication in Huh-7 HCV replicon-containing cells, three days incubation, NPT level by ELISA
Outline: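 Huh-7 cells carrying a Bartenschlager NPTII (neo) HCV replicon, treated 3 days at 37 °C with compound, generally 6 concentrations from 10 to 0.03 micromolar, in equal DMSO across wells. NPTII level, proportional to replication, read by capture ELISA on methanol:acetone-fixed cells; interferon alpha positive control; toxicity scored visually or by MTS.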

[1] = Hepatitis C virus, Huh-7, 72 h, read-out: EC50

Compound	pEC50 [1]	further results
CCCCCOc1ccc(N(C)c2nc(C(=O)Nc3cccnc3)cs2)cc1C(F)(F)F [Compound 6, 2-(methyl(4-(pentyloxy)-3-(trifluoromethyl)phenyl)amino)-N-(pyridin-3-yl)thiazole-4-carboxamide]	5.00 to 6.00	
CCCCCOc1ccc(N(C(N)=O)c2nc(-c3ccc(F)cc3)cs2)cc1F [Compound 111, 1-(3-fluoro-4-(pentyloxy)phenyl)-1-(4-(4-fluorophenyl)thiazol-2-yl)urea]	> 6.00	
CCCCCCCCOc1ccc(N(C(N)=O)c2nc(-c3cccnc3)c(F)s2)cc1C(F)(F)F [Compound 176, 1-(5-fluoro-4-(pyridin-3-yl)thiazol-2-yl)-1-(4-(octyloxy)-3-(trifluoromethyl)phenyl)urea]	> 6.00	
CCCCCCCCOc1ccc(N(C(=O)NCC(=O)O)c2nc(-c3cccnc3)cs2)cc1C(F)(F)F [Compound 165, 2-(3-(4-(octyloxy)-3-(trifluoromethyl)phenyl)-3-(4-(pyridin-3-yl)thiazol-2-yl)ureido)acetic acid]	> 6.00	
CCCCCCCOc1ccc(N(C(=O)c2cc(C)on2)c2nc(-c3nc4ccccc4s3)cs2)cc1 [Compound 92, N-(4-(benzo[d]thiazol-2-yl)thiazol-2-yl)-N-(4-(heptyloxy)phenyl)-5-methylisoxazole-3-carboxamide]	5.00 to 6.00	
CCCCCOc1ccc(N(C(=O)OC)c2nc(-c3ccc(F)cc3)cs2)cc1C(F)(F)F [Compound 47, methyl 4-(4-fluorophenyl)thiazol-2-yl(4-(pentyloxy)-3-(trifluoromethyl)phenyl)carbamate]	> 6.00	
CCCCCN(C)c1ccc(N(C(N)=O)c2nc(-c3ccccn3)cs2)cc1C(F)(F)F [Compound 106, 1-(4-(methyl(pentyl)amino)-3-(trifluoromethyl)phenyl)-1-(4-(pyridin-2-yl)thiazol-2-yl)urea]	> 6.00	
CCCCCOc1ccc(N(C(C)=O)c2nc(-c3cccnc3)cs2)cc1F [Compound 24, N-(3-fluoro-4-(pentyloxy)phenyl)-N-(4-(pyridin-3-yl)thiazol-2-yl)acetamide]	> 6.00	
CCCCCCOc1ccc(N(C(N)=O)c2nc(-c3ccncc3)cs2)cc1 [Compound 146, 1-(4-(hexyloxy)phenyl)-1-(4-(pyridin-4-yl)thiazol-2-yl)urea]	5.00 to 6.00	
NC(=O)N(c1ccc(OCC2CCCCC2)c(F)c1)c1nc(-c2ccc(F)cc2)cs1 [Compound 117, 1-(4-(cyclohexylmethoxy)-3-fluorophenyl)-1-(4-(4-fluorophenyl)thiazol-2-yl)urea]	5.00 to 6.00	
CCCCCCCCOc1ccc(N(C(=O)COC(C)=O)c2nc(-c3cccnc3)c(F)s2)cc1C(F)(F)F [Compound 168, 2-((5-fluoro-4-(pyridin-3-yl)thiazol-2-yl)(4-(octyloxy)-3-(trifluoromethyl)phenyl)amino)-2-oxoethyl acetate]	> 6.00	
CC(C)COc1ccc(N(C(N)=O)c2nc(-c3cccnc3)cs2)cc1C(F)(F)F [Compound 152, 1-(4-isobutoxy-3-(trifluoromethyl)phenyl)-1-(4-(pyridin-3-yl)thiazol-2-yl)urea]		pEC50: 5.00 to 6.00
CCCCCCCCOc1ccc(N(C(N)=O)c2nc(-c3ccc(C(=O)N(C)C)nc3)cs2)cc1 [Compound 78, N,N-dimethyl-5-(2-(1-(4-(octyloxy)phenyl)ureido)thiazol-4-yl)picolinamide]	< 5.00	
CCCCCCCCOc1ccc(N(C(=O)c2cc(C)on2)c2nc(-c3nc4ccccc4s3)cs2)cc1 [Compound 90]		pEC50 (Hepatitis C virus, Huh-7, 72 h): 5.00 to 6.00
CCCCCCCCOc1ccc(N(C(=O)CC(=O)OC)c2nc(-c3ccc(F)cc3)cs2)cc1 [Compound 44, methyl 3-((4-(4-fluorophenyl)thiazol-2-yl)(4-(octyloxy)phenyl)amino)-3-oxopropanoate]	> 6.00	
CCCCCOc1ccc(N(C(N)=O)c2nc(-c3cccnc3C)cs2)cc1C(F)(F)F [Compound 70, 1-(4-(2-methylpyridin-3-yl)thiazol-2-yl)-1-(4-(pentyloxy)-3-(trifluoromethyl)phenyl)urea]	> 6.00	
CCCCCCCCOc1ccc(N(C(=O)NC2CCCCC2)c2nc(-c3cccnc3)cs2)cc1 [Compound 88, 3-cyclohexyl-1-(4-(octyloxy)phenyl)-1-(4-(pyridin-3-yl)thiazol-2-yl)urea]	5.00 to 6.00	
CC(C)COc1ccc(N(C(N)=O)c2nc(-c3ccc(O)c(C(N)=O)c3)cs2)cc1C(F)(F)F [Compound 148, 2-hydroxy-5-(2-(1-(4-isobutoxy-3-(trifluoromethyl)phenyl)ureido)thiazol-4-yl)benzamide]	> 6.00	
CCCCCOc1ccc(N(C(=O)C(C)C)c2nc(-c3ccc(CN(C)C)nc3)cs2)cc1C(F)(F)F [Compound 19, N-(4-(6-((dimethylamino)methyl)pyridin-3-yl)thiazol-2-yl)-N-(4-(pentyloxy)-3-(trifluoromethyl)phenyl)isobutyramide]	5.00 to 6.00	

Compound	pEC50 [1]	further results
CCCCCCCCOc1ccc(N(C(=O)C(=O)OCC)c2nc(-c3cccnc3)cs2)cc1 [Compound 66, ethyl 2-((4-(octyloxy)phenyl)(4-(pyridin-3-yl)thiazol-2-yl)amino)-2-oxoacetate]	> 6.00	
CCCCCOc1ccc(N(C(=O)C(=O)OC)c2nc(-c3ccc(Cl)s3)cs2)cc1C(F)(F)F [Compound 99, methyl 2-((4-(5-chlorothiophen-2-yl)thiazol-2-yl)(4-(pentyloxy)-3-(trifluoromethyl)phenyl)amino)-2-oxoacetate]	> 6.00	
CCCCCCCOc1ccc(N(C(N)=O)c2nc(-c3ccc(C(=O)N(C)C)nc3)cs2)cc1 [Compound 79, 5-(2-(1-(4-(heptyloxy)phenyl)ureido)thiazol-4-yl)-N,N-dimethylpicolinamide]	< 5.00	
CCCCCCCCc1ccc(N(C(C)=O)c2nc(-c3cccnc3)c(F)s2)cc1C(F)(F)F [Compound 175, N-(5-fluoro-4-(pyridin-3-yl)thiazol-2-yl)-N-(4-octyl-3-(trifluoromethyl)phenyl)acetamide]	> 6.00	
CCCCCOc1ccc(N(C(=O)OC)c2nc(-c3ccc(F)cc3)cs2)cc1F [Compound 46, methyl 3-fluoro-4-(pentyloxy)phenyl(4-(4-fluorophenyl)thiazol-2-yl)carbamate]	5.00 to 6.00	
NC(=O)c1cc(-c2csc(N(C(N)=O)c3ccc(OCC4CCCCC4)c(F)c3)n2)ccc1O [Compound 115, 5-(2-(1-(4-(cyclohexylmethoxy)-3-fluorophenyl)ureido)thiazol-4-yl)-2-hydroxybenzamide]	5.00 to 6.00	
CCCCCOc1ccc(N(C(=O)C(C)C)c2nc(CN(C)C)cs2)cc1C(F)(F)F [Compound 21, N-(4-((dimethylamino)methyl)thiazol-2-yl)-N-(4-(pentyloxy)-3-(trifluoromethyl)phenyl)isobutyramide]	5.00 to 6.00	
CN(C)CC(=O)N(c1ccc(OCCCCc2cccs2)c(C(F)(F)F)c1)c1nc(-c2cccnc2)c(F)s1 [Compound 173, 2-(dimethylamino)-N-(5-fluoro-4-(pyridin-3-yl)thiazol-2-yl)-N-(4-(4-(thiophen-2-yl)butoxy)-3-(trifluoromethyl)phenyl)acetamide]	> 6.00	
CCCCCOc1ccc(N(C(N)=O)c2nc(-c3ccc(F)cc3F)cs2)cc1C(F)(F)F [Compound 86, 1-(4-(2,4-difluorophenyl)thiazol-2-yl)-1-(4-(pentyloxy)-3-(trifluoromethyl)phenyl)urea]	> 6.00	
CCCCOc1ccc(N(C(N)=O)c2nc(-c3ccc(F)c(F)c3)cs2)cc1C(F)(F)F [Compound 138, 1-(4-butoxy-3-(trifluoromethyl)phenyl)-1-(4-(3,4-difluorophenyl)thiazol-2-yl)urea]	> 6.00	
CCCCCCCCOc1ccc(N(C(=O)CCC(=O)O)c2nc(-c3cccnc3)c(F)s2)cc1C(F)(F)F [Compound 163, 4-((5-fluoro-4-(pyridin-3-yl)thiazol-2-yl)(4-(octyloxy)-3-(trifluoromethyl)phenyl)amino)-4-oxobutanoic acid]	> 6.00	
CCCCCCCCOc1ccc(N(C(=O)C(C)OC(C)=O)c2nc(-c3ccc(C)nc3)cs2)cc1 (stereo not shown) [Compound 63, 1-((4-(6-methylpyridin-3-yl)thiazol-2-yl)(4-(octyloxy)phenyl)amino)-1-oxopropan-2-yl acetate]	> 6.00	
C/C=N/N(c1ccc(OCCCCCCCC)c(C(F)(F)F)c1)c1nc(-c2cccnc2)c(F)s1 [Compound 191, (E)-2-(2-ethylidene-1-(4-(octyloxy)-3-(trifluoromethyl)phenyl)hydrazinyl)-5-fluoro-4-(pyridin-3-yl)thiazolo]	5.00 to 6.00	
CCCCOc1ccc(N(C(N)=O)c2nc(-c3ccncc3)cs2)cc1C(F)(F)F [Compound 137, 1-(4-butoxy-3-(trifluoromethyl)phenyl)-1-(4-(pyridin-4-yl)thiazol-2-yl)urea]	> 6.00	
CCCCCOc1ccc(N(C(=O)Nc2ccccc2)c2nc(-c3cccnc3)cs2)cc1C(F)(F)F [Compound 81, 1-(4-(pentyloxy)-3-(trifluoromethyl)phenyl)-3-phenyl-1-(4-(pyridin-3-yl)thiazol-2-yl)urea]	> 6.00	
CCCCCOc1ccc(N(C(=O)NC(C)(C)C)c2nc(-c3cccnc3)cs2)cc1C(F)(F)F [Compound 76, 3-tert-butyl-1-(4-(pentyloxy)-3-(trifluoromethyl)phenyl)-1-(4-(pyridin-3-yl)thiazol-2-yl)urea]	> 6.00	
CCCCCCCCOc1ccc(N(C(=O)OC)c2nc(-c3ccc(F)cc3)cs2)cc1 [Compound 48, methyl 4-(4-fluorophenyl)thiazol-2-yl(4-(octyloxy)phenyl)carbamate]	5.00 to 6.00	
C/C=N/N(c1ccc(OCCCCCCCC)c(C(F)(F)F)c1)c1nc(-c2cccnc2)cs1 [Compound 189, (E)-2-(2-ethylidene-1-(4-(octyloxy)-3-(trifluoromethyl)phenyl)hydrazinyl)-4-(pyridin-3-yl)thiazolo]	> 6.00	
